Data as given in paper PMC4980415 (Psychopharmacology, 2016).
Where a name gives a salt, the structure may show the parent alone. Read-outs that look alike come from different tables or passages of the source.

Assays:
NK3 (h), neurokinin = molecular target: T1, NK3 (h), neurokinin (Homo sapiens, UniProt P29371); experiment: Off-target binding, General SEP II panel; settings: 10 μM ITI-214, mean of n = 2
T1 construct: Caliper Life Sciences (contract screen)
T1 sequence (P29371 1-465): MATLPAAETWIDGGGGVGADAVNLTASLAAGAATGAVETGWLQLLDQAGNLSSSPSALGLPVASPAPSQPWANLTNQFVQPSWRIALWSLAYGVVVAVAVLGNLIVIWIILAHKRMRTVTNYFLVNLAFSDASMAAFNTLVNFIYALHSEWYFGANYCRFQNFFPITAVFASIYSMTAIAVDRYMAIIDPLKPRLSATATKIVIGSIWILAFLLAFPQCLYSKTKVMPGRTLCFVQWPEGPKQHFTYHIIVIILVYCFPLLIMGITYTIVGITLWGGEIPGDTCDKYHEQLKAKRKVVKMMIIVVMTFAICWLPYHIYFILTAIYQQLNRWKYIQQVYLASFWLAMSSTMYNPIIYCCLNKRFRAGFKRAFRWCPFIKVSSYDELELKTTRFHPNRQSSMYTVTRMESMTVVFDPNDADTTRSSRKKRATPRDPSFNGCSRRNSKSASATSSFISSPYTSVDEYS

[1] = system: memory retrieval in male Wistar rats; experiment: Novel object recognition (NOR): retrieval, drug 2 h before T2; type: in vivo, rat; settings: for Exploration time e1 (T1) / Exploration time e2 (T2): 2 h before T2, 24 h interval
Procedure: The drug was administered, per os (po), by gavage to rats in a volume of 2 ml/kg body weight. Oral dosing solutions were prepared fresh daily. […] The pH of the dosing solution was adjusted to ~pH 5.5 by dropwise addition of 0.1 N NaOH in saline and volume adjusted by addition of saline in preparation for intraperitoneal (ip) dosing. […] Control treatments were always the vehicle solutions of the corresponding drugs.
The object recognition test was performed as described elsewhere (Ennaceur and Delacour [1988]; Akkerman et al. 2014). The apparatus consisted of a circular arena, 83 cm in diameter. Half of the 40-cm-high wall was made of gray polyvinyl chloride, the other half of transparent polyvinyl chloride. The light intensity was equal in the different parts of the apparatus, as fluorescent red tubes provided a constant illumination of about 20 lx on the floor of the apparatus. Two objects were placed in a symmetrical position at about 10 cm from the gray wall. Four different sets of objects were used. The different objects were (1) a cone consisting of a gray polyvinyl chloride base (maximal diameter 18 cm) with a collar on top made of brass (total height 16 cm), (2) a standard 1 L transparent glass bottle (diameter 10 cm, height 22 cm) filled with water, (3) a large metal cube (10.0 × 5.0 × 7.5 cm) with two holes (diameter 1.9 cm), and (4) a large aluminum cube with a tapering top (13.0 × 8.0 × 8.0 cm). The objects used in this study were carefully selected to be “novelty neutral,” that is to say the rats have no innate preference for one over the other. In all cases, objects were of sufficient size and weight that rats could not move the objects.
A testing session consisted of two trials. The duration of each trial was 3 min. During the first trial (T1), the apparatus contained two identical objects (samples). Rats were placed in the apparatus facing the wall at the middle of the front (transparent) segment. After the first exploration period, the rat was put back in its home cage. Subsequently, after a 24-h delay interval, the rat was put in the apparatus for the second trial (T2). The times spent in exploring each object during T1 and T2 were recorded manually using a personal computer.
Exploration was defined as follows: directing the nose to the object at a distance of no more than 2 cm and/or touching the object with the nose. Sitting on the object was not considered as exploratory behavior. In order to avoid the presence of olfactory cues, the objects were always thoroughly cleaned with a 70 % ethanol solution before each trial. All combinations and locations of objects were used in a balanced manner to reduce potential biases due to preferences for particular locations or objects.
During the first 2 weeks after animal arrival, the animals were handled daily. They were then adapted to the procedure over the period of 2 days by allowing them to explore the apparatus (without any objects) for 3 min twice each day. […] After this, the rats were assigned to treatment conditions in a balanced manner, thereby insuring an equal distribution of object combinations among the treatment conditions. […] In all experiments, a 24-h inter-trial interval was used. In all cases, the experimenter was unaware of the treatment conditions that were being tested.
The basic measure recorded was the time spent by each rat exploring an object during T1 and T2. The time spent in exploring the two identical samples was represented by “a1” and “a2.” The time spent in T2 in exploring the sample and new object was represented by “a” and “b,” respectively. The following variables were calculated: e1 = a1 + a2, e2 = a + b, and d2 = (b − a) / e2. The e1 and e2 are measures of the total exploration time of both objects during T1 and T2, respectively. Differences in exploration times between treatment conditions were analyzed using a t test or one-way ANOVA. […]

[2] = molecular target: T2, DA transporter (h), dopamine (Homo sapiens, UniProt Q01959); experiment: Off-target binding, General SEP II panel; settings: 10 μM ITI-214, mean of n = 2
T2 construct: Caliper Life Sciences (contract screen)
T2 sequence (Q01959 whole entry): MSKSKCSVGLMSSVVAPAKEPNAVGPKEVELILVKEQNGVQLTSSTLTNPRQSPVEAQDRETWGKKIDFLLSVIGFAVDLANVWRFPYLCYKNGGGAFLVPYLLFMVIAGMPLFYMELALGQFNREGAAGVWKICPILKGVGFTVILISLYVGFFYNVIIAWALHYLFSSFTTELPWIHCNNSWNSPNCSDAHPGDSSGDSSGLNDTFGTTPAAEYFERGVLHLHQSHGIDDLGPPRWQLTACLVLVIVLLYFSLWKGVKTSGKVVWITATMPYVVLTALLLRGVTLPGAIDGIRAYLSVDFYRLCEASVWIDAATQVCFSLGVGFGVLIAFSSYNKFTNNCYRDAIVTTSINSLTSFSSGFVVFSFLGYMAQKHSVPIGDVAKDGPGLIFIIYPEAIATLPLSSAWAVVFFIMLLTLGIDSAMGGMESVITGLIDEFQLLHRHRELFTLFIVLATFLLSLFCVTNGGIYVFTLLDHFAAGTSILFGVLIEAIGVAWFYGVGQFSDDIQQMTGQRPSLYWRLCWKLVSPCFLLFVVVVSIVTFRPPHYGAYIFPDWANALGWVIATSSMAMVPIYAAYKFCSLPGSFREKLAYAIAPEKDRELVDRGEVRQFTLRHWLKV

[3] = Pharmacokinetics of ITI-214 in rats; type: in vivo; settings: rat, oral; for concentration at 2 h: 3 mg/kg
Description: Standard methods of tissue extraction were used.

[4] = system: 70 key receptor, enzyme, and ion channel proteins; experiment: 70-target diversity panel (SEP II), whole panel; type: binding; settings: 10 μM, 70-target panel
NK1 (h), neurokinin = molecular target: T3, NK1 (h), neurokinin (Homo sapiens, UniProt P25103); experiment: Off-target binding, General SEP II panel; settings: 10 μM ITI-214, mean of n = 2
T3 construct: Caliper Life Sciences (contract screen)
T3 sequence (P25103 whole entry): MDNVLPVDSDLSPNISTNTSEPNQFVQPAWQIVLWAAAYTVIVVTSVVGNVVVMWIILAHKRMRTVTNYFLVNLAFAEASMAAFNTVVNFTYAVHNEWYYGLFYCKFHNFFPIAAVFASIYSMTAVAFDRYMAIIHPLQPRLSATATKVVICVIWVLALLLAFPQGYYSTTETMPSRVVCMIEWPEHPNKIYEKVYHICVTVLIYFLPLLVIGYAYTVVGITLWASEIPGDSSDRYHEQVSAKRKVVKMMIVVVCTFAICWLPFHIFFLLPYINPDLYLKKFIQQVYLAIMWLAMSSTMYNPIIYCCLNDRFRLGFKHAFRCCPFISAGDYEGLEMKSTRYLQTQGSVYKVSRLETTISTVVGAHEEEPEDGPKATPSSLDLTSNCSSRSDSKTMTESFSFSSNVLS

[5] = molecular target: T4, Potassium channel I[Kr], (hERG) (Homo sapiens, UniProt Q12809); experiment: Off-target binding, General SEP II panel; settings: 10 μM ITI-214, mean of n = 2
T4 construct: Caliper Life Sciences (contract screen)
T4 sequence (Q12809 whole entry): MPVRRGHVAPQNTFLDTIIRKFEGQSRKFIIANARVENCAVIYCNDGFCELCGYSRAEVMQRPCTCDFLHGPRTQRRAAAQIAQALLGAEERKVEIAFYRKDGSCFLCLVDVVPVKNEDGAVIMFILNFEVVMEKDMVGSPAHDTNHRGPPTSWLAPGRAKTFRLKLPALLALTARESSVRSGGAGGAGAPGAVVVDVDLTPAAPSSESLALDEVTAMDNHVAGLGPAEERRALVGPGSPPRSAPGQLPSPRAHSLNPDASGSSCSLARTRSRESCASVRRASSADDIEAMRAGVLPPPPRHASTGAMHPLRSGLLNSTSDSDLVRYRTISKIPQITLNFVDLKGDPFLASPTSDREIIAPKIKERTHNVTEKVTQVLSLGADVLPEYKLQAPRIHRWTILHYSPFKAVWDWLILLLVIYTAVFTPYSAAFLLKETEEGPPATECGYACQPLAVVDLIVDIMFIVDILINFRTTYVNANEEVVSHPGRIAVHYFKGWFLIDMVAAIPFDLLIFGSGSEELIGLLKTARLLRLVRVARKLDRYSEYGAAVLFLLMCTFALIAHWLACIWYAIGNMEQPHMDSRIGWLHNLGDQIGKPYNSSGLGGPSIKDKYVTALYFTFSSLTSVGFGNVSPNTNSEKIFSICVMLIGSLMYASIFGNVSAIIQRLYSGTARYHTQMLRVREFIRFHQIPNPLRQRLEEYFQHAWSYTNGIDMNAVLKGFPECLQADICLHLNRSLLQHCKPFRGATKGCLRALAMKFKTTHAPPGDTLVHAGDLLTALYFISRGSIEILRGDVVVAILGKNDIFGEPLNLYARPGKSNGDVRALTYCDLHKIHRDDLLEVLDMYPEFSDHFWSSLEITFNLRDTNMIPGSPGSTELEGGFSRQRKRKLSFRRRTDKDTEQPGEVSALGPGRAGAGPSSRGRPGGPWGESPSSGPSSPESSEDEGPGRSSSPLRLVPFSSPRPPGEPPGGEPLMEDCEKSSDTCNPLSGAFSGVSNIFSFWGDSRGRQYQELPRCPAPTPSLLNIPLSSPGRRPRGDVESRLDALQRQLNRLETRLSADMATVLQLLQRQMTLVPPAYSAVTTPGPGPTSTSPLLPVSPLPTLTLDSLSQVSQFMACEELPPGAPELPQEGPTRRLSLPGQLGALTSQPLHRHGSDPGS

[6] = system: Alpha 2 (non-selective), adrenergic; experiment: Off-target binding, General SEP II panel; settings: 10 μM ITI-214, mean of n = 2
PDE1 (bovine brain) = experiment: PDE activity IMAP assay, bovine brain PDE1; type: biochemical; settings: Fl-cGMP substrate, CaCl2/calmodulin
[7] = system: Ca^2+ channel (L, DHP site); experiment: Off-target binding, General SEP II panel; settings: 10 μM ITI-214, mean of n = 2
PDE1 isoforms = experiment: PDE1 potency and selectivity versus other PDE families; type: biochemical; settings: span of Table 1 values; read-out: Ki for inhibition of recombinant or bovine PDE1 enzymes

CN1C(=O)c2c(nn(Cc3ccc(-c4cccc(F)n4)cc3)c2Nc2ccccc2)N2C1=N[C@@H]1CCC[C@@H]12 [ITI-214, (6aR,9aS)-2-(4-(6-fluoropyridin-2-yl)benzyl)-5-methyl-3-(phenylamino)-5,6a,7,8,9,9a-hexahydrocyclopenta-[4,5]imidazo[1,2-a]pyrazolo[4,3-e]pyrimidin-4-(2H)-one phosphate salt]
% Binding (NK3 (h), neurokinin): 64.65%
Exploration time e1 (T1) ([1]; 0.1 mg/kg po): 29.32 (1.82) s
Exploration time e2 (T2) ([1]; 0.1 mg/kg po): 28.78 (2.08) s
Exploration time e1 (T1) ([1]; 0.3 mg/kg po): 28.83 (1.84) s
Exploration time e2 (T2) ([1]; 0.3 mg/kg po): 29.31 (1.52) s
Exploration time e1 (T1) ([1]; 1 mg/kg po): 26.81 (1.72) s
Exploration time e2 (T2) ([1]; 1 mg/kg po): 33.64 (2.35) s
Exploration time e1 (T1) ([1]; 3 mg/kg po): 27.20 (1.90) s
Exploration time e2 (T2) ([1]; 3 mg/kg po): 28.60 (1.13) s
Exploration time e1 (T1) ([1]; 10 mg/kg po): 30.59 (1.98) s
Exploration time e2 (T2) ([1]; 10 mg/kg po): 30.52 (1.87) s
full effective dose (d2 different from chance and from vehicle), retrieval ([1]; po 2 h before T2): 1 mg/kg
effect on exploratory behavior during T1 or T2 ([1]; retrieval and combined sub-threshold dose experiments): no effect on exploratory behavior
% Binding [2]: 58.70%
Tmax ([3]; brain): ~1.5 h
concentration at 2 h ([3]; brain, plasma levels associated with optimal effects on acquisition, read-out: brain free fraction estimated): 0.12 nM
concentration at 2 h ([3]; plasma, 2 h after drug administration, N = 12 rats, read-out: plasma level): 30.1 ± 13.4 ng/mL
concentration at 2 h ([3]; plasma, 2 h after drug administration, read-out: free plasma concentration): 0.12 nM
number of panel targets showing >50 % binding [4]: 4
% Binding (NK1 (h), neurokinin): 30.93%
% Binding [5]: 35.09%
% Binding [6]: 34.94%
Ki (PDE1 (bovine brain)): 0.058 nM
% Binding [7]: 73.28%
Ki (PDE1 isoforms): 0.034 to 0.058 nM
